From patent publication US8410106B2, “Hydrazine-substituted anthranilic acid derivatives” (Bayer Cropscience AG, priority 2010, dated 2013)
Read-outs that look alike come from different tables or passages of the source.

How the values were obtained:
[1] = logP determination by HPLC on reversed-phase columns (C 18), EEC Directive 79/831 Annex V.A8; assay type: physicochemical
[2] = tested on: greenhouse red spidermite (Tetranychus urticae); experiment: Tetranychus test, OP-resistant (TETRUR spray treatment); assay type: in vivo; conditions: after 6 days, bean leaf discs
Procedure: (§1) After 6 days the activity is determined, in %.

[3] = tested on: caterpillars of the army worm (Spodoptera frugiperda); experiment: Spodoptera frugiperda test (SPODFR spray treatment); assay type: in vivo; conditions: foliar, 168 h, read-out: activity (caterpillars killed)
[4] = tested on: larvae of the mustard beetle (Phaedon cochleariae); experiment: Phaedon test (PHAECO spray treatment); conditions: in Brassica rapa, foliar, 168 h, read-out: activity (beetle larvae killed)
[5] = tested on: green peach aphid (Myzus persicae); experiment: Myzus test (MYZUPE spray treatment); assay type: in vivo; conditions: foliar, 144 h, read-out: activity (aphids killed)
Procedure: as §1

[6] = HPLC, reversed-phase C 18, table value without method mark, read-out: logP
[7] = application rate 100 g/ha, after 7 days, maize leaf discs, spray
[8] = application rate 100 g/ha, after 6 days, Chinese cabbage leaf discs, spray

Structure (SMILES) | chromatographic logP [1] | activity (mites killed) ([2]; application rate 500 g/ha) | chromatographic logP [1, 6] | activity (mites killed) ([2]; application rate 100 g/ha) | pest or weed control at 100 g/ha [3, 7] | pest or weed control at 100 g/ha [4] | pest or weed control at 100 g/ha ([5]; in Brassica rapa) | pest or weed control at 100 g/ha ([3]; in Zea mays) | pest or weed control at 100 g/ha [5, 8]
COC(=O)N(C)NC(=O)c1cc(Cl)cc(Cl)c1NC(=O)c1cc(Cn2nc(OC)n(C)c2=O)nn1-c1ncccc1Cl [Example 67] | 1.9 | 100% | – | – | – | – | – | – | –
COC(=O)N(C)NC(=O)c1cc(Cl)cc(C)c1NC(=O)c1cc(Cn2nnc(C(F)(F)F)n2)nn1-c1ncccc1C#N [Example 59] | – | – | 2.73 | 100% | 100% | 100% | – | – | –
COC(=O)NNC(=O)c1cc(C#N)cc(C)c1NC(=O)c1cc(Cn2nnc(C(F)(F)F)n2)nn1-c1ncccc1Cl [Example 4] | 2.41 | – | – | – | – | 100% | 100% | 100% | –
COC(=O)N(C)NC(=O)c1cc(C#N)cc(C)c1NC(=O)c1cc(Cn2nnc(C(F)(F)C(F)(F)F)n2)nn1-c1ncccc1Cl [Example 73] | – | – | 2.97 | – | 100% | 100% | – | – | 100%
COC(=O)N(C)NC(=O)c1cc(Cl)cc(C)c1NC(=O)c1cc(Cn2nc(C(F)(F)C(F)(F)C(F)(F)F)cc2C)nn1-c1ncccc1Cl [Example 68] | – | – | 3.82 | – | – | 100% | 100% | 100% | –
COC(=O)N(C)NC(=O)c1cc(Cl)cc(Cl)c1NC(=O)c1cc(Cn2nc(C(F)(F)F)c(Cl)c2C)nn1-c1ncccc1Cl [Example 11] | 3.55 | – | – | – | – | 100% | 90% | 100% | –
COC(=O)N(C)NC(=O)c1cc(Cl)cc(Cl)c1NC(=O)c1cc(Cn2nc(C(F)F)cc2C(F)F)nn1-c1ncccc1Cl [Example 42] | 2.9 | – | – | – | – | 100% | 100% | 100% | –
COC(=O)N(C)NC(=O)c1cc(C#N)cc(C)c1NC(=O)c1cc(Cn2nnc(C(F)(F)F)n2)nn1-c1ncccc1Cl [Example 6] | 2.63 | – | – | – | – | 100% | 100% | 100% | –
COC(=O)N(C)N(C)C(=O)c1cc(C#N)cc(C)c1NC(=O)c1cc(Cn2nnc(C(F)(C(F)(F)F)C(F)(F)F)n2)nn1-c1ncccc1Cl [Example 79] | – | – | 3.66 | – | 100% | 100% | – | – | 100%
COC(=O)N(C)NC(=O)c1cc(I)cc(C)c1NC(=O)c1cc(Cn2nnc(C(F)F)n2)nn1-c1ncccc1Cl [Example 74] | 2.64 | – | – | – | – | 100% | 100% | 100% | –
COC(=O)N(C)NC(=O)c1cc(C#N)cc(C)c1NC(=O)c1cc(Cn2nnc(C(F)(C(F)(F)F)C(F)(F)F)n2)nn1-c1ncccc1Cl [Example 16] | – | – | 3.26 | – | 100% | 100% | – | – | 100%
COC(=O)N(C)N(C)C(=O)c1cc(Cl)cc(C)c1NC(=O)c1cc(Cn2cc(-c3ccc(Cl)cc3)nn2)nn1-c1ncccc1Cl [Example 41] | – | – | 3.49 | – | 100% | 100% | – | – | 100%
COC(=O)N(C)NC(=O)c1cc(I)cc(C)c1NC(=O)c1cc(Cn2cnc(C(F)(F)F)c2C(F)(F)F)nn1-c1ncccc1Cl [Example 49] | – | – | 3.26 | – | 100% | 100% | – | – | 100%
COC(=O)N(C)NC(=O)c1cc(Cl)cc(C)c1NC(=O)c1cc(Cn2nnc(C(F)(F)F)n2)nn1-c1ccccc1Cl [Example 85] | – | – | 3.34 | – | 100% | 100% | – | – | 100%
COC(=O)N(C)NC(=O)c1cc(C#N)cc(C)c1NC(=O)c1cc(Cn2ncc(C(F)(F)F)n2)nn1-c1ncccc1Cl [Example 29] | 2.62 | – | – | – | – | 100% | 100% | 100% | –
COC(=O)N(C)NC(=O)c1cc(Cl)cc(C)c1NC(=O)c1cc(Cn2nnc(C(F)(F)F)n2)nn1-c1ncccc1Cl [Example 5] | 2.96 | – | – | – | – | 100% | 100% | 100% | –
